In patent US20230174484A1, “ANTAGONISTS OF GPR39 PROTEIN” (Oregon Health & Science University, priority 2020, published 2023):

Biological target: T1, human GPR39 receptor (Homo sapiens, UniProt O43194)
T1 construct: PC3 Cells, Expressing the Endogenous Human GPR39 Receptor; endogenous in cells; host or cells: PC3 (human prostate adenocarcinoma) cells
T1 sequence (O43194 1-453): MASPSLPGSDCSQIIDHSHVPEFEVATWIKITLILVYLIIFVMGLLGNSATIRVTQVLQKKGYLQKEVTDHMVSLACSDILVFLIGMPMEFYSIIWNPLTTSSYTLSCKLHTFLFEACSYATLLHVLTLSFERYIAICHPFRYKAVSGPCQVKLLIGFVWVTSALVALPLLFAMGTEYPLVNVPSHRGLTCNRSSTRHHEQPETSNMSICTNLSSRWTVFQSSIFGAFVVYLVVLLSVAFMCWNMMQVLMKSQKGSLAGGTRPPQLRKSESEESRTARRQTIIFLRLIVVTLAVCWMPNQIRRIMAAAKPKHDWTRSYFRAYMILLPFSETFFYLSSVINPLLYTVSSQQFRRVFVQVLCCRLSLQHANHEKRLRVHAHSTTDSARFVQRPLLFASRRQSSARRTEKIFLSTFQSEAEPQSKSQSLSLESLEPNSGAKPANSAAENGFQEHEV
Test: Measurement of intracellular calcium response in PC3 cells (FLIPR), antagonism of the C3 agonist response
Type: cell-based
Conditions: functional pKi (modified Cheng-Prusoff), inhibition of the C3 (TC-G 1008) response at EC90, 30 μM ZnCl2, read-out: fpKi activity
Description: Human prostate adenocarcinoma (PC3) cells endogenously expressing human GPR39 receptor were seeded into black walls clear-base 384-well plates at a density of 7,500 cells per well in DM EM (Low Glucose) supplemented with 10% heat-inactivated foetal bovine serum and 1% of Pen/Strep and grown overnight at 37° C., 5% CO2. After washing with assay buffer (20 mM HEPES, 137 mM NaCI, 5.4 mM KCI, 10 mM glucose, 0.8 mM MgSO4, 1.3 mM CaCl2, 0.3 mM Na2HPO4, 0.4 mM KH2PO4 4.2 mM NaHCO3, pH 7.4), cells were incubated with Calcium-6 probe (Molecular Devices) at 37° C. for 2h and then equilibrated at RT for 30 minutes on metal block. The fluorescence was measured in real time by Fluorometric Imaging Plate Reader (FLIPR TETRA, Molecular Devices) (excitation wavelength at 470-495 nm, emission wavelength at 515-575 nm).
Compounds of invention were serially diluted in neat DMSO at 1000 fold concentrations and plated into 384-well plates and then 200-fold diluted in assay buffer containing 150 uM ZnCl2 (30 μM final concentration) and […].
Fluorescence was monitored throughout the run assay. The peak of Ca2+stimulation (baseline subtracted) was expressed as percentage of the maximal inhibition of the EC90 C3 response and was plotted versus the concentration of test compound. Curve fitting and IC50 estimations are carried out using a four-parameter logistic model using XLfit Software.
The potency of compounds was reported as functional pKi (—Log10Ki) obtained using the modified Cheng-Prusoff relationship (Cheng, Y., Prusoff, W. H. 1973.)
fKi =IC50/(1+[L]/EC50) where IC50 is the concentration of antagonist required for 50% inhibition of the maximum response, [L] is the concentration of the agonist used (EC90) and EC50 is the concentration of agonist need to induced 50% of the maximum response (obtained in each experimental plate).
An fpKi less than 5.2 is reported as “+/±”. An fpKi ranging from 5.2 to 5.9 is reported as “+”. An fpKi from 6.0 to 6.5 is reported as “++”. An fpKi from 6.6 to 7.2 is reported as “+++”. An fpKi equal to or greater than 7.3 is reported as “++++”.

Row | Structure (SMILES) | Ki [nM]
1 | CN1CCN(C(=O)c2ccc(NC(=O)C3CC3)cc2N2CCCC2)C(c2cncc(Cl)c2)C1 (racemic) [Example 172, N-[4-[2-(5-chloropyridin-3-yl)-4-methylpiperazine-1-carbonyl]-3-pyrrolidin-1ylphenyl]cyclopropanecarboxamide] | 63.1 to 251
2 | CN1CCN(C(=O)c2ccc(NC(=O)C3CC3)cc2N2CCCC2)C(c2cnn(C)c2)C1 (racemic) [Example 87, N-[4-[4-methyl-2-(1-methylpyrazol-4-yl)piperazine-1-carbonyl]-3-pyrrolidin-1-ylphenyl]Cyclopropanecarboxamide] | 316 to 1000
3 | Cc1nnc(-c2ccc(C(=O)N3CCC4(CC3)CC4)c(-n3ccc(C(F)(F)F)n3)c2)[nH]1 [Example 214, 6-azaspiro[2.5]octan-6-yl-[4-(5-methyl-4H-1,2,4-triazol-3-yl)-2-[3-(trifluoromethyl)pyrazol-1-yl]phenyl]methanone] | ≤ 50.1
4 | CC1CC(C)CN(c2cc(NC(=O)C3CC3)ccc2-c2nnc(Sc3ccccc3)n2CCN(C)C)C1 (stereo not shown) [Example 115, N-[4-[4-[2-(dimethylamino)ethyl]-5-phenylsulfanyl-1,2,4-triazol-3-yl]-3-(3,5-dimethylpiperidin-1-yl)phenyl]cyclopropanecarboxamide] | 316 to 1000
5 | CN1CCn2c(cnc2-c2ccc(NC(=O)C3CC3)cc2N2CCCCCC2)C1 [Example 102, N-[3-(azepan-1-yl)-4-{7-methyl-5H,6H,7H,8H-imidazo[1,5-a]pyrazin-3-yl}phenyl]cyclopropanecarboxamide] | 63.1 to 251
6 | CCCN1CCN(C(=O)c2ccc(NC(=O)C3CC3)cc2N2CC[C@@H](C(C)C)C2)CC1 [Example 2, (S)-N-(3-(3-isopropylpyrrolidin-1-yl)-4-(4-propylpiperazine-1-carbonyl)phenyl)cyclopropanecarboxamide] | ≤ 50.1
7 | CN1CCN(C(=O)c2ccc(NC(=O)C3CC3)nc2N2CCCC2)C(c2ccccc2)C1 (single isomer, unassigned) [Example 149a, (2R or 2S) N-[5-(4-methyl-2-phenylpiperazine-1-carbonyl)-6-pyrrolidin-1-ylpyridin-2-yl] cyclopropanecarboxamide] | 63.1 to 251
8 | CN1CCN(C(=O)c2ccc(NC(=O)C3CC3)cc2N2CCCCCC2)CC1 [Example 49, N-(3-(azepan-1-yl)-4-(4-methylpiperazine-1-carbonyl)phenyl)cyclopropanecarboxamide] | 63.1 to 251
9 | CN1CCN(C(=O)c2ccc(NC(=O)C3CC3)nc2N2CCCC(F)(F)C2)C(c2ccccc2)C1 (racemic) [Example 144, N-[6-(3,3-difluoropiperidin-1-yl)-5-(4-methyl-2-phenylpiperazine-1-carbonyl)pyridin-2-yl]cyclopropanecarboxamide] | 63.1 to 251
10 | CN1CCN(C(=O)c2ccc(NC(=O)C3CC3)cc2N2CCCC2)C(c2ccccc2Cl)C1 (single isomer, unassigned) [Example 170b, (2R or 2S) N-[4-[2-(2-chlorophenyl)-4-methylpiperazine-1-carbonyl]-3-pyrrolidin-1-ylphenyl]cyclopropanecarboxamide] | 316 to 1000
11 | O=C(Nc1ccc(C(=O)N2CCN3CCCC3C2)c(N2CCCCCC2)c1)C1CC1 (stereo not shown) [Example 40, N-[3-(azepan-1-yl)-4-{octahydropyrrolo[1,2-a]pyrazine-2-carbonyl}phenyl] Cyclopropanecarboxamide] | 316 to 1000
12 | CSc1nnc(-c2ccc(NC(=O)C3CC3)cc2N2CCCCCC2)n1C [Example 109, N-[3-(azepan-1-yl)-4-(4-methyl-5-methylsulfanyl-1,2,4-triazol-3-yl)phenyl]Cyclopropanecarboxamide] | 1260 to 6310
13 | CN1CCN(C(=O)c2ccc(NC(=O)C3CC3)cc2N2CCC3(COC3)C2)C(c2ccccc2Cl)C1 (racemic) [Example 211, N-[4-[2-(2-chlorophenyl)-4-methylpiperazine-1-carbonyl]-3-(2-oxa-7-azaspiro[3.4]octan-7-yl)phenyl]cyclopropanecarboxamide] | 63.1 to 251
